This passage reports fibrin signal and plasma protein binding results from PMC11967380, “Rapid Determination of Xa Inhibitor Activity in Blood Using a Microfluidic Device that Measures Platelet Deposition and Fibrin Generation Under Flow” (TH Open: Companion Journal to Thrombosis and Haemostasis, 2025).

Series [1] has as its system whole blood clotting on collagen/tissue factor (platelet and fibrin deposition). The experiment in a line: DOAC reversal and detection in blood of DOAC-treated patients (microfluidic platelet and fibrin signal). Type of series: cell-based, human. Conditions: 5,000 nM matching DOAC added ex vivo to patient blood, all subjects. The text has this: Platelets were labeled in whole blood by the addition of an AlexaFluor 488-conjugated anti-CD61 molecule (Bio-Rad Laboratories) and fibrin was quantified via the addition of AlexaFluor 594-conjugated fibrinogen (Life Technologies Co.), as previously described. Chips were mounted on a Lumascope 620 (Etaluma Inc.) LED epifluorescence microscope with a 2.5× objective (Meiji Techno). Each chip was primed with 1% bovine serum albumin (BSA) in HEPES-buffered saline (HBS) to passivate the surfaces ( Fig. 1A ). A volume of 60 μL of whole blood was added to each inlet well. A vacuum pressure of 140 mbar was applied to the outlet to yield an initial wall shear rate of 200 s ^−1 . Fluorescence images were captured at 10 s intervals for green and red LED channels to obtain kinetic data for platelet and fibrin deposition on the collagen/TF zone for up to 25 min. Images were analyzed with ImageJ to calculate the average pixel brightness of an inner 200 μm by 200 μm region within each clot.
For DOAC-treated patients on either rivaroxaban or apixaban, blood samples were obtained and analyzed, using the microfluidic device to measure platelets and fibrin deposition under flow as described above. […] For subjects 1 through 19, fluorescence data were collected for 15 minutes. […]
Statistical significance was calculated for paired t -tests, using GraphPad Prism 9 (GraphPad Software). […]

Details of series [2]: method as in PMID 31089975, PMID 23999929. Conditions: cited from earlier work.

In the case of `COc1ccc(-n2nc(C(N)=O)c3c2C(=O)N(c2ccc(N4CCCCC4=O)cc2)CC3)cc1` [apixaban], in series [1], the fibrin signal result was “nearly fully suppressed”. Also, the plasma protein binding entry in series [2] is on record as “high”.

For the molecule `O=C(NC[C@H]1CN(c2ccc(N3CCOCC3=O)cc2)C(=O)O1)c1ccc(Cl)s1` [rivaroxaban], the fibrin signal result in series [1] is “nearly fully suppressed”. The plasma protein binding result in series [2] is reported as “high”.
